# Test results: patent US10925876B2, “Methods for using triazolo-pyrazinyl soluble guanylate cyclase activators in fibrotic disorders” (Merck Sharp & Dohme Corp., priority 2016, dated 2021)
# Biological target: T1, sGC α1/β1 heterodimer (Homo sapiens, UniProt Q02108+Q02153)
# T1 construct: expressed in transfected cells
# T1 sequence (Q02108 1-690): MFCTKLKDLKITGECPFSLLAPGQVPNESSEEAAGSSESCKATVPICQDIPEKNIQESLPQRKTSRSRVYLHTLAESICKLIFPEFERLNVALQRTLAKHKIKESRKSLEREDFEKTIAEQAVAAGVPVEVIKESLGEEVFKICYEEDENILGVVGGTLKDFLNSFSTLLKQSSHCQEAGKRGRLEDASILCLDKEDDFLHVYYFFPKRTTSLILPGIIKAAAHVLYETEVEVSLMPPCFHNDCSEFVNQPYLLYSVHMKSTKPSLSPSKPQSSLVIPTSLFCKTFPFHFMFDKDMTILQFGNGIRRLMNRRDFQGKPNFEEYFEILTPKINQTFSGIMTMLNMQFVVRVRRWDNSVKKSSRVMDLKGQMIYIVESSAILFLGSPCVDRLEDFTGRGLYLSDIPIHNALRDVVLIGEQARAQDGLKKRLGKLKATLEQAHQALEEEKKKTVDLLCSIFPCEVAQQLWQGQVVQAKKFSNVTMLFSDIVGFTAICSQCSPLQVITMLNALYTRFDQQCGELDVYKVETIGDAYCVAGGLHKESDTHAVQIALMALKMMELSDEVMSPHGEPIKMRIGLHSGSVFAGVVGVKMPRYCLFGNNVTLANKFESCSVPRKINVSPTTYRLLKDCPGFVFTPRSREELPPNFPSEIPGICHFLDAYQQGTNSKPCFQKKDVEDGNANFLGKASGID
# T1 sequence (Q02153 1-619): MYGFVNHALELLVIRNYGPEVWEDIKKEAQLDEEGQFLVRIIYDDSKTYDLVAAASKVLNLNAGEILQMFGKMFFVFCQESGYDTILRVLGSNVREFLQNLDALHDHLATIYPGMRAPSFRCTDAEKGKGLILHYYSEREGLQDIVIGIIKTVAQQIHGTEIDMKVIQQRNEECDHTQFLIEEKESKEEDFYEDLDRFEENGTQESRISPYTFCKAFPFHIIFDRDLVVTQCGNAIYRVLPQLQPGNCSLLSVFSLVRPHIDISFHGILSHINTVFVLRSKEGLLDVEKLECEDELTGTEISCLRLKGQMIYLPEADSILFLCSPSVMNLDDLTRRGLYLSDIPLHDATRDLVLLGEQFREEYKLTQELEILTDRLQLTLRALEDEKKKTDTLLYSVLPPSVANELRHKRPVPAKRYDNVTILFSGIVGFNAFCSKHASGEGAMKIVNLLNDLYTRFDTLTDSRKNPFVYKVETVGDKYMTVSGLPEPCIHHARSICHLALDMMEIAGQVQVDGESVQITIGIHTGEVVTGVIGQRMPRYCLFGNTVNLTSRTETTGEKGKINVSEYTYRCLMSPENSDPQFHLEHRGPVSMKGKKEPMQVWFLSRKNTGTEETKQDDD
# Assay: Cell-Based sGC Functional Assay (CASA Assay), cGMP generation in CHO-K1/sGC cells;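 note: reference Compound A is a published heme-dependent sGC activator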
# Settings: maximum cGMP production of Compound A set to 100% activation, read-out: % Act. (percent activation relative to Compound A)
# Method in brief: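 Intracellular cGMP quantified by HTRF competition after 1 h, 37 °C compound exposure, with or without 1 μM DETA-NO, in stable CHO-K1/sGC α1/β1 cells (4×10^5/mL; buffer with 0.5 mM IBMX, 5 mM MgCl2, 10 mM HEPES, 0.05% BSA; 2.5% DMSO). Activation normalized to reference Compound A maximum; 4P fit.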
row,Compound,Emax [%]
1,"C[C@@]1(c2ccc(F)cc2)C(=O)Nc2nc(-c3cn4ncnc4c(Cc4cccc(O)c4)n3)nc(N)c21 [Example 113B, (S)-4-amino-5-(4-fluorophenyl)-2-(8-(3-hydroxybenzyl)-[1,2,4]triazolo[1,5-a]pyrazin-6-yl)-5-methyl-5H-pyrrolo[2,3-d]pyrimidin-6(7H)-one]",171
2,"CC1(c2ccccc2)C(=O)Nc2nc(-c3cn4ncnc4c(CCCC(F)(F)F)n3)nc(N)c21 (centres unmarked) [Example 37B, 4-amino-5-methyl-5-phenyl-2-(8-(4,4,4-trifluorobutyl)-[1,2,4]triazolo[1,5-a]pyrazin-6-yl)-5H-pyrrolo[2,3-d]pyrimidin-6(7H)-one]",112
3,"CCCCc1nc(-c2nc(N)c3c(n2)NC(=O)C3(c2ccc(C(F)(F)F)cn2)C2CC2)cn2ncnc12 (centres unmarked) [Example 70A, 4-amino-2-(8-butyl-[1,2,4]triazolo[1,5-a]pyrazin-6-yl)-5-cyclopropyl-5-(5-(trifluoromethyl)pyridin-2-yl)-5H-pyrrolo[2,3-d]pyrimidin-6(7H)-one]",133
4,"Nc1nc(-c2cn3ncnc3c(CCCC(F)(F)F)n2)nc2c1C(c1ccc(Cl)cn1)(C1CC1)C(=O)N2 (centres unmarked) [Example 27A, 4-amino-5-(5-chloropyridin-2-yl)-5-cyclopropyl-2-(8-(4,4,4-trifluorobutyl)-[1,2,4]triazolo[1,5-a]pyrazin-6-yl)-5H-pyrrolo[2,3-d]pyrimidin-6(7H)-one]",178
5,"CCCCc1nc(-c2nc(O)c3c(n2)NC(=O)C3(C)c2ccc(C(F)(F)F)cn2)cn2ncnc12 (centres unmarked) [Example 159B, 2-(8-butyl-[1,2,4]triazolo[1,5-a]pyrazin-6-yl)-4-hydroxy-5-methyl-5-(5-(trifluoromethyl)pyridin-2-yl)-5H-pyrrolo[2,3-d]pyrimidin-6(7H)-one]",73
6,"Cc1nc2c(Cc3ccc(F)cc3)nc(-c3nc(N)c4c(n3)NC(=O)[C@@]4(C)c3ccc(F)cc3)cn2n1 [Example 87B, (S)-4-amino-2-(8-(4-fluorobenzyl)-2-methyl-[1,2,4]triazolo[1,5-a]pyrazin-6-yl)-5-(4-fluorophenyl)-5-methyl-5H-pyrrolo[2,3-d]pyrimidin-6(7H)-one]",138
7,"CC(F)(F)c1ccc(C2(C)C(=O)Nc3nc(-c4cn5ncnc5c(CCC(F)(F)C(F)(F)F)n4)nc(N)c32)cn1 (racemic) [Example 16B, 4-amino-5-(6-(1,1-difluoroethyl)pyridin-3-yl)-5-methyl-2-(8-(3,3,4,4,4-pentafluorobutyl)-[1,2,4]triazolo[1,5-a]pyrazin-6-yl)-5H-pyrrolo[2,3-d]pyrimidin-6(7H)-one]",77
8,"CCCc1nc(-c2nc(N)c3c(n2)NC(=O)C3(c2ccc(F)cn2)C2CC2)cn2ncnc12 (centres unmarked) [Example 59A, 4-amino-5-cyclopropyl-5-(5-fluoropyridin-2-yl)-2-(8-propyl-[1,2,4]triazolo[1,5-a]pyrazin-6-yl)-5H-pyrrolo[2,3-d]pyrimidin-6(7H)-one]",119
9,"O=C1Nc2nc(-c3cn4ncnc4c(CCC(F)(F)C(F)(F)F)n3)nc(O)c2C1(c1cncc(F)c1)C1CC1 (centres unmarked) [Example 124B, 5-cyclopropyl-5-(5-fluoropyridin-3-yl)-4-hydroxy-2-(8-(3,3,4,4,4-pentafluorobutyl)-[1,2,4]triazolo[1,5-a]pyrazin-6-yl)-5H-pyrrolo[2,3-d]pyrimidin-6(7H)-one]",88
10,"N#Cc1ccc(C2(C3CC3)C(=O)Nc3nc(-c4cn5ncnc5c(CCC(F)(F)C(F)(F)F)n4)nc(N)c32)nc1 (centres unmarked) [Example 118A, 6-(4-Amino-5-cyclopropyl-6-oxo-2-(8-(3,3,4,4,4-pentafluorobutyl)-[1,2,4]triazolo[1,5-a]pyrazin-6-yl)-6,7-dihydro-5H-pyrrolo[2,3-d]pyrimidin-5-yl)nicotinonitrile]",72
11,"Nc1nc(-c2cn3ncnc3c(CCCC(F)(F)F)n2)nc2c1C(c1ccc(Cl)cc1)(C1CC1)C(=O)N2 (centres unmarked) [Example 31B, 4-amino-5-(4-chlorophenyl)-5-cyclopropyl-2-(8-(4,4,4-trifluorobutyl)-[1,2,4]triazolo[1,5-a]pyrazin-6-yl)-5H-pyrrolo[2,3-d]pyrimidin-6(7H)-one]",104
